Measured values published in the supplement of paper PMC10949913.

Columns and labels:
Experiment in all cases: area under concentration-response curve (viability) (AUC (a.u.)); higher = less active
Settings in all cases: 48 h
[1] = system: CU-ACC1
Summary of the method: (§1)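 Three adrenocortical carcinoma cell lines were plated in 1,536-well plates at 500–1,000 cells/well in 5 µL medium, and 23 nL of each library compound was added at 11 concentrations. After 48 h, CellTiter-Glo was applied for 15 minutes at room temperature before luminescence was read. Each plate's signals were normalised to vehicle and empty-well controls. AC50 and area under the curve were taken from fitted concentration-response curves, with only inhibitory or non-responding curve classes retained.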

[2] = system: CU-ACC2
Summary of the method: as §1

[3] = system: NCI-H295R
Summary of the method: as §1

Clc1ccccc1CN1CCc2sccc2C1
area under concentration-response curve [1]: 510 | area under concentration-response curve [2]: 617 | area under concentration-response curve [3]: 543

CN1C(=O)\C(=C/C(=C1/NC2=C(F)C=C(I)C=C2)C(=O)NOCCO)C
area under concentration-response curve [1]: 335 | area under concentration-response curve [2]: 519 | area under concentration-response curve [3]: 550

O=C([O-])C(O)Cc1ccc(O)c(O)c1 (stereo not drawn)
area under concentration-response curve [1]: 460 | area under concentration-response curve [2]: 589 | area under concentration-response curve [3]: 553

CCCCCCCCCCCCCCCCCCCCCCO
area under concentration-response curve [1]: 538 | area under concentration-response curve [2]: 562 | area under concentration-response curve [3]: 525

CN(C)CC/C=C1/c2ccccc2COc2ccc(CC(=O)O)cc21
area under concentration-response curve [1]: 467 | area under concentration-response curve [2]: 570 | area under concentration-response curve [3]: 509

CCn1c(=O)c2c(nc(/C=C/c3ccc(OC)c(OC)c3)n2C)n(CC)c1=O
area under concentration-response curve [1]: 431 | area under concentration-response curve [2]: 434 | area under concentration-response curve [3]: 431

O=C1NC(=O)/C(=C/c2cccc(C(F)(F)F)c2)S1
area under concentration-response curve [1]: 463 | area under concentration-response curve [2]: 511 | area under concentration-response curve [3]: 449

Cc1ccc([S+](=O)([O-])OCC(=O)Nc2ccc(C(=O)O)c(O)c2)cc1
area under concentration-response curve [1]: 543 | area under concentration-response curve [2]: 589 | area under concentration-response curve [3]: 546

OC(COC1=C2C(=O)\C=C(/OC2=CC=C1)C([O-])=O)COC3=C4C(=O)\C=C(/OC4=CC=C3)C([O-])=O
area under concentration-response curve [1]: 527 | area under concentration-response curve [2]: 624 | area under concentration-response curve [3]: 555

CC(COc1ccccc1)N(CCCl)Cc1ccccc1 (stereo not drawn)
area under concentration-response curve [1]: 549 | area under concentration-response curve [2]: 653 | area under concentration-response curve [3]: 584

O=C(Cc1ccccc1)Nc1nnc(CCSCCc2nnc(NC(=O)Cc3ccccc3)s2)s1
area under concentration-response curve [1]: 509 | area under concentration-response curve [2]: 532 | area under concentration-response curve [3]: 507

NC[C@H]1O[C@H](O[C@H]2[C@H](O)[C@@H](O[C@H]3O[C@H](CO)[C@@H](O)[C@H](N)[C@H]3O)[C@H](N)C[C@@H]2N)[C@H](N)C[C@@H]1O
area under concentration-response curve [1]: 486 | area under concentration-response curve [2]: 579 | area under concentration-response curve [3]: 535

CCC(C)N1\N=C/N(C1=O)C2=CC=C(C=C2)N3CCN(CC3)C4=CC=C(OC[C@H]5CO[C@@](C[N]6C=NC=N6)(O5)C7=CC=C(Cl)C=C7Cl)C=C4 (stereo partly drawn)
area under concentration-response curve [1]: 556 | area under concentration-response curve [2]: 676 | area under concentration-response curve [3]: 574

O=C(O)[C@@H](c1ccc(OCc2ccc3ccccc3n2)cc1)C1CCCC1
area under concentration-response curve [1]: 454 | area under concentration-response curve [2]: 561 | area under concentration-response curve [3]: 493

Cc1c(NC(=O)c2cc(C(N)=O)nc3cc(F)ccc23)c(C(F)(F)F)nn1Cc1ccc(C(C)(C)C)cc1
area under concentration-response curve [1]: 506 | area under concentration-response curve [2]: 589 | area under concentration-response curve [3]: 533

O=C(Cc1ccc(-c2ccc(OCCN3CCOCC3)cc2)cn1)NCc1ccccc1
area under concentration-response curve [1]: 397 | area under concentration-response curve [2]: 531 | area under concentration-response curve [3]: 493

CC(N[C@H]1C[C@@H]1c1ccccc1)c1ccc2c(c1)OCCO2 (stereo partly drawn)
area under concentration-response curve [1]: 432 | area under concentration-response curve [2]: 453 | area under concentration-response curve [3]: 432

Cc1ccc(-c2ncn(-c3ccc(Nc4nccc(-c5cccc(N6CCOCC6)c5)n4)cc3)n2)cn1
area under concentration-response curve [1]: 370 | area under concentration-response curve [2]: 543 | area under concentration-response curve [3]: 549

COC12C(COC(N)=O)\C3=C(/N1CC4C2N4C)C(=O)C(=C(N)/C3=O)\C (stereo not drawn)
area under concentration-response curve [1]: 506 | area under concentration-response curve [2]: 544 | area under concentration-response curve [3]: 507

Cc1ccc([S+](=O)([O-])N[C@@H](Cc2ccccc2)C(=O)CCl)cc1
area under concentration-response curve [1]: 530 | area under concentration-response curve [2]: 628 | area under concentration-response curve [3]: 584

CC1(C)Cc2c(sc(NC(=S)NC(=O)c3ccccc3)c2C(=O)O)CO1
area under concentration-response curve [1]: 490 | area under concentration-response curve [2]: 586 | area under concentration-response curve [3]: 522

C[C@@H]1CN(Cc2ccc(F)cc2)[C@@H](C)CN1C(=O)c1cc2c(C(=O)C(=O)N(C)C)cn(C)c2cc1Cl
area under concentration-response curve [1]: 515 | area under concentration-response curve [2]: 634 | area under concentration-response curve [3]: 552

C/C=C/C(=O)N(CC)c1ccccc1C
area under concentration-response curve [1]: 417 | area under concentration-response curve [2]: 468 | area under concentration-response curve [3]: 441

C1Cc2[nH]nc(-c3nn[nH]n3)c2C1
area under concentration-response curve [1]: 544 | area under concentration-response curve [2]: 624 | area under concentration-response curve [3]: 514

NC\1=N\C(=O)N(\C=C1)[C@@H]2CS[C@H](CO)O2
area under concentration-response curve [1]: 534 | area under concentration-response curve [2]: 612 | area under concentration-response curve [3]: 569

C[N+](C)([O-])CCNc1ccc(NCC[N+](C)(C)[O-])c2c1C(=O)c1c(O)ccc(O)c1C2=O
area under concentration-response curve [1]: 505 | area under concentration-response curve [2]: 540 | area under concentration-response curve [3]: 496

CN\1N(C(=O)\C(=C1C)C(=O)NC2=CC=C(OC3=CC=NC4=C3C(=C[NH]4)C5=CC=CC=C5)C(=C2)F)C6=CC=C(F)C=C6
area under concentration-response curve [1]: 522 | area under concentration-response curve [2]: 525 | area under concentration-response curve [3]: 535

C[S+]([O-])(=O)NC1=CC2=C(C=C1OC3=CC=CC=C3)C(=O)\C(=C/O2)NC=O
area under concentration-response curve [1]: 477 | area under concentration-response curve [2]: 508 | area under concentration-response curve [3]: 487

[O-]C(=O)C/1=N/C(=O)NC(=O)N1
area under concentration-response curve [1]: 418 | area under concentration-response curve [2]: 608 | area under concentration-response curve [3]: 551

O=C1Cc2cc(C(=O)NC3C[C@H]4CC[C@@H](C3)N4[S+](=O)([O-])CC3CCN(CCCC(F)(F)F)CC3)c(Cl)cc2N1 (stereo partly drawn)
area under concentration-response curve [1]: 525 | area under concentration-response curve [2]: 611 | area under concentration-response curve [3]: 539

COc1ccc([S+](=O)([O-])N[C@@H](CNc2nc(C)nc(N3CCC(c4ccc5c(n4)NCCC5)CC3)c2C)C(=O)O)cc1
area under concentration-response curve [1]: 554 | area under concentration-response curve [2]: 441 | area under concentration-response curve [3]: 589

Nc1n[nH]c2nnc(-c3c(-c4ccccc4)nn4ccccc34)cc12
area under concentration-response curve [1]: 489 | area under concentration-response curve [2]: 595 | area under concentration-response curve [3]: 515

COc1cc(F)c(C(C)C)cc1-c1ccc(C(F)(F)F)cc1CN1C(=O)O[C@H](c2cc(C(F)(F)F)cc(C(F)(F)F)c2)[C@@H]1C
area under concentration-response curve [1]: 421 | area under concentration-response curve [2]: 505 | area under concentration-response curve [3]: 428

Nc1nccn2c1c(-c1cc3cccc(Cl)c3[nH]1)nc2[C@H]1CC[C@H](C(=O)O)CC1
area under concentration-response curve [1]: 498 | area under concentration-response curve [2]: 589 | area under concentration-response curve [3]: 536

C/C=C(/C)C(=O)O[C@H]1C(C)=CC23C(=O)C(C=C(CO)[C@@H](O)[C@]12O)[C@H]1[C@@H](C[C@H]3C)C1(C)C (stereo partly drawn)
area under concentration-response curve [1]: 399 | area under concentration-response curve [2]: 505 | area under concentration-response curve [3]: 484

CO[C@@H]1[C@H](N(C)C(=O)c2ccccc2)C[C@H]2O[C@]1(C)n1c3ccccc3c3c4c(c5c6ccccc6n2c5c31)C(=O)NC4
area under concentration-response curve [1]: 522 | area under concentration-response curve [2]: 476 | area under concentration-response curve [3]: 492

CC(C)(Sc1ccc(CCN(CCCCC2CCCCC2)C(=O)NC2CCCCC2)cc1)C(=O)O
area under concentration-response curve [1]: 506 | area under concentration-response curve [2]: 585 | area under concentration-response curve [3]: 501

NC(=O)[C@@H](CC1CC1)[C@@H](CCC(F)(F)F)C(=O)N[C@H]2\N=C(C3=CC=CC=C3)/C4=CC=CC(=C4NC2=O)F
area under concentration-response curve [1]: 543 | area under concentration-response curve [2]: 573 | area under concentration-response curve [3]: 541

CC(C)C[C@@H](C(=O)N[C@H](C(=O)OC1CCCC1)c1ccccc1)[C@H](O)C(=O)NO
area under concentration-response curve [1]: 463 | area under concentration-response curve [2]: 551 | area under concentration-response curve [3]: 539

CN1CCN(C)C(=O)C1C2=CC=C(N/C3=N/C(=C\N(C)C3=O)C4=C(C)C(=CC=C4)NC(=O)C5=CC6=C(CCCC6)S5)C=C2 (stereo not drawn)
area under concentration-response curve [1]: 528 | area under concentration-response curve [2]: 612 | area under concentration-response curve [3]: 580

Cc1cc(O)c2c(c1)C(=O)c1cc(O)cc(O)c1C2=O
area under concentration-response curve [1]: 471 | area under concentration-response curve [2]: 521 | area under concentration-response curve [3]: 498

CC[C@H](C)C(=O)O[C@H]1C[C@@H](C)\C=C2\C=C/[C@H](C)[C@H](CC[C@@H]3C[C@@H](O)CC(=O)O3)[C@@H]12
area under concentration-response curve [1]: 576 | area under concentration-response curve [2]: 647 | area under concentration-response curve [3]: 576

CC[C@H](CC[C@@H](C)[C@H]1CC[C@H]2[C@@H]3C\C=C/4C[C@@H](O)CC[C@]4(C)[C@H]3CC[C@]12C)C(C)C
area under concentration-response curve [1]: 413 | area under concentration-response curve [2]: 396 | area under concentration-response curve [3]: 421

CNC(=O)c1c(C)oc2cc(Oc3ncnc4cc(OC)c(OC)cc34)ccc12
area under concentration-response curve [1]: 535 | area under concentration-response curve [2]: 624 | area under concentration-response curve [3]: 593

CC[C@@]1(O)C(=O)OCC/2=C1/C=C/3N(CC4=C(CCNC(C)C)C5=CC=CC=C5N=C34)C2=O
area under concentration-response curve [1]: 538 | area under concentration-response curve [2]: 611 | area under concentration-response curve [3]: 654

CC1COC2=C3N1\C=C(C(O)=O)/C(=O)C3=CC(=C2N4CCN(C)CC4)F (stereo not drawn)
area under concentration-response curve [1]: 474 | area under concentration-response curve [2]: 537 | area under concentration-response curve [3]: 517
